Reference: US10456387B2, “Phacetoperane for treating of attention deficit hyperactivity disorder” (NLS PHARMA AG, priority 2011, dated 2019)

Experiments:
[1] = system: young Wistar rats; test: T-maze test, a model of ADHD (ability to wait / impulsiveness); format: in vivo, rat; conditions: for Efficacy compared with methylphenidate in the ability to wait: BLK-010 1 mg/kg IP vs methylphenidate 3 mg/kg IP; for Effect on ability to wait relative to the control: administered IP before the test, BLK-010 1 mg/kg; for Effect on ability to wait relative to the control / Mean, Medication (choices of the large reward deferred by 30 s) / Mean, Cont-Post (choices of the large reward deferred by 30 s): methylphenidate 3 mg/kg; for Mean, Medication (choices of the large reward deferred by 30 s): medication sessions, IP 30 min before test; for Mean, Cont-Post (choices of the large reward deferred by 30 s): post-medication control sessions, one day after medication session 2, phacetoperane 1 mg/kg IP; for Mean, Cont-Pre (choices of the large reward deferred by 30 s): pre-medication control sessions, before any drug, male juvenile Wistar rats, n = 6, sessions of 5 tests
[2] = system: young Wistar rats; conditions: background description of the model; cited from earlier work

Compound	Efficacy compared with methylphenidate in the ability to wait [1]	Efficacy compared with methylphenidate in the ability to wait ([1]; listed as BLK-010)	Improvement of impulsiveness, animals responding ([1]; BLK-010 1 mg/kg IP, n = 6)	Effect on ability to wait relative to the control [1]	Mean, Medication (choices of the large reward deferred by 30 s) ([1]; phacetoperane 1 mg/kg, n = 6)	Habituation (before and after treatment) ([1]; phacetoperane 1 mg/kg)	Mean, Cont-Post (choices of the large reward deferred by 30 s) ([1]; n = 6)	Mean, Cont-Pre (choices of the large reward deferred by 30 s) [1]	Effect on number of times the large but deferred reward is chosen [2]
CC(=O)OC(c1ccccc1)C1CCCCN1 (racemic) [Phacetoperane, threo diastereoisomer of alpha-phenyl-2-piperidinemethanol acetate]	always found to be more effective than methylphenidate	significantly and statistically more effective than methylphenidate	found in all the animals	improve the ability to wait	4.17	does not lead to any habituation	0.33	1.17	–
COC(=O)C(c1ccccc1)C1CCCCN1 (stereo not shown) [Methylphenidate, methylphenidate]	–	–	–	improve the ability to wait	3.67	–	0.83	1.17	seems to increase the number of times the large but deferred reward is chosen
